# Data taken from US8394969B2, “Cyclic benzimidazole derivatives useful as anti-diabetic agents” (Merck Sharp & Dohme Corp., priority 2008, dated 2013).
# Where a name gives a salt, the structure may show the parent alone. Read-outs that look alike come from different tables or passages of the source.
# Target: recombinant human AMPK complex 1 (containing α1β1γ1) (Homo sapiens, UniProt Q13131+Q9Y478)
# Assay: […] (in vitro AMPK activation assay)
# Format: biochemical
# [1] = recombinant human AMPK complex 1 (α1β1γ1), basal activity subtracted, read-out: % Maximum AMP Activation of human AMPK Complex 1
# recombinant human AMPK complex 1 (containing α1β1γ1), sequence (Q13131 whole entry): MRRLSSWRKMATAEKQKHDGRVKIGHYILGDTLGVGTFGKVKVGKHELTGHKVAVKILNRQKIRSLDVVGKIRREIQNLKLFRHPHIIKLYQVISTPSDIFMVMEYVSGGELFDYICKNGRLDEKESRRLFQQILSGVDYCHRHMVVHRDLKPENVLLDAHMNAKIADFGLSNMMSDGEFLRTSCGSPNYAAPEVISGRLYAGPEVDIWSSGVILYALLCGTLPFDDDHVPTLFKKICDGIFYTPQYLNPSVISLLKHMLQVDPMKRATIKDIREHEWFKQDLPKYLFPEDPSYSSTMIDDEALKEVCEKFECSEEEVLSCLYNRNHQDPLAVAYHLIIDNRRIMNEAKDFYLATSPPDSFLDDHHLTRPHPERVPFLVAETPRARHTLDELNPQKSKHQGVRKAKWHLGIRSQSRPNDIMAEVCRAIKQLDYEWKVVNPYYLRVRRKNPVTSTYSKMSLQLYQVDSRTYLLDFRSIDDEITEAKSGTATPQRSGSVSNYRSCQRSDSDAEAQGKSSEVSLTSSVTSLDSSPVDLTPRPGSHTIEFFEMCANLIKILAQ
# recombinant human AMPK complex 1 (containing α1β1γ1), sequence (Q9Y478 whole entry): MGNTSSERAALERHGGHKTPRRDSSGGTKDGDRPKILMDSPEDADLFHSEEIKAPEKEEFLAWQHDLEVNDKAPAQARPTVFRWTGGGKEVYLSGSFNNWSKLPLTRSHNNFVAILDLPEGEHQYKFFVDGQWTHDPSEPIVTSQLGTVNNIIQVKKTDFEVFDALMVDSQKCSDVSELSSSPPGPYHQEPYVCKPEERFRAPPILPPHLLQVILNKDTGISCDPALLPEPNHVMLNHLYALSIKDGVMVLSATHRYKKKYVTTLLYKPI
# recombinant human AMPK complex 1 (containing α1β1γ1), sequence (P54619 whole entry partner): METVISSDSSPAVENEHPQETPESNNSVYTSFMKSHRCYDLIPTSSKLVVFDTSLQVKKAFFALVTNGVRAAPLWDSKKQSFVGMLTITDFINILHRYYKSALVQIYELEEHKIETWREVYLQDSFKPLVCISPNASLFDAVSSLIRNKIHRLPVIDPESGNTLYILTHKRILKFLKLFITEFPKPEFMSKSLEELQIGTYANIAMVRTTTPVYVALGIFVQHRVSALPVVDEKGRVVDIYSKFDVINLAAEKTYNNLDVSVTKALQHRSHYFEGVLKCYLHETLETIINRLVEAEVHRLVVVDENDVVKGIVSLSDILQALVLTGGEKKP
Structure (SMILES),Emax [1],further results
"Cc1ccc(C(=O)O)cc1Oc1nc2cc(-c3ccc4c(ccn4C)c3)c(Cl)cc2[nH]1 [Example 216, 3-[6-Chloro-5-(1-methyl-1H-indol-5-yl)-1H-benzoimidazol-2-yloxy]-4-methyl-benzoic acid]",> 80%,–
"COc1ncccc1-c1ccc(-c2cc3nc(Oc4ccc(C)c(C(=O)O)c4)[nH]c3cc2Cl)cc1 [Example 199, 5-({6-chloro-5-[4-(2-methoxypyridin-3-yl)phenyl]-1-benzimidazol-2-yl}oxy)-2-methylbenzoic acid]",> 80%,–
"Cc1ccc(Oc2nc3cc(-c4ccc(C#N)cc4)c(Cl)cc3[nH]2)cc1C(=O)O [Example 180, 5-[6-Chloro-5-(4-cyano-phenyl)-1H-benzoimidazol-2-yloxy]-2-methyl-benzoic acid]",> 80%,–
"Cc1ccc(Oc2nc3cc(-c4ccc(-c5ccccn5)cc4)c(Cl)cc3[nH]2)cc1C(=O)O [Example 166, 5-[6-Chloro-5-(4-pyridin-2-yl-phenyl)-1H-benzoimidazol-2-yloxy]-2-methyl-benzoic acid]",> 80%,–
"CS(=O)(=O)NC(=O)c1cccc(Oc2nc3cc(-c4ccc(-c5ccccc5)cc4)c(Cl)cc3[nH]2)c1 [Example 225, N-[3-(5-Biphenyl-4-yl-6-chloro-1H-benzoimidazol-2-yloxy)-benzoyl]-methanesulfonamide]",> 80%,–
"CC(=O)Nc1cccc(Oc2nc3cc(-c4ccc(-c5ccccc5)cc4)c(Cl)cc3[nH]2)c1 [Example 3, N-[3-(5-Biphenyl-4-yl-6-chloro-1H-benzoimidazol-2-yloxy)-phenyl]-acetamide]",> 80%,–
"Cc1ccccc1C#Cc1cc2nc(Oc3ccc(C)c(C(=O)O)c3)[nH]c2cc1Cl [Example 96, 5-(6-Chloro-5-o-tolylethynyl-1H-benzoimidazol-2-yloxy)-2-methyl-benzoic acid]",> 80%,–
"Cc1ccc(Oc2nc3cc(-c4ccc(OC(F)(F)F)cc4)c(Cl)cc3[nH]2)cc1C(=O)O [Example 363, Ammonium 5-({6-chloro-5-[4-(trifluoromethoxy)phenyl]-1H-benzimidazol-2-yl}oxy)-2-methylbenzoate]",–,"Emax (read-out: % Maximum AMP Activation of human AMPK Complex 1, recombinant human AMPK complex 1 (α1β1γ1), basal activity subtracted): > 80%"
"Cc1ccc(Oc2nc3cc(-c4ccc(-n5cccn5)cc4)c(Cl)cc3[nH]2)cc1C(=O)O [Example 58, 5-[6-Chloro-5-(4-pyrazol-1-yl-phenyl)-1H-benzoimidazol-2-yloxy]-2-methyl-benzoic acid]",> 80%,–
"Cc1c(Oc2nc3cc(-c4ccc5c(ccn5C)c4)c(Cl)cc3[nH]2)cccc1C(=O)O [Example 218, 3-[6-Chloro-5-(1-methyl-1H-indol-5-yl)-1H-benzoimidazol-2-yloxy]-2-methyl-benzoic acid]",> 80%,–
"Cc1ccc(Oc2nc3cc(C#Cc4ccc(Cl)cc4)c(Cl)cc3[nH]2)cc1C(=O)O [Example 112, 5-[6-Chloro-5-(4-chloro-phenylethynyl)-1H-benzoimidazol-2-yloxy]-2-methyl-benzoic acid]",> 80%,–
"Cc1ccc(Oc2nc3cc(-c4ccc5c(c4)CC(=O)N5)c(Cl)cc3[nH]2)cc1C(=O)O [Example 307, 5-[6-Chloro-5-(2-oxo-2,3-dihydro-1H-indol-5-yl)-1H-benzoimidazol-2-yloxy]-2-methyl-benzoic acid]",> 80%,–
"Cc1ccc(Oc2nc3cc(-c4ccc5c(ccc(=O)n5C)c4)c(Cl)cc3[nH]2)cc1C(=O)O [Example 234, 5-[6-Chloro-5-(1-methyl-2-oxo-1,2-dihydro-quinolin-6-yl)-1H-benzoimidazol-2-yloxy]-2-methyl-benzoic acid]",> 80%,–
"O=C(O)c1cccc(Nc2nc3cc(-c4ccc(-c5ccccc5O)cc4)c(Cl)cc3[nH]2)c1 [Example 52, 3-[6-Chloro-5-(2′-hydroxy-biphenyl-4-yl)-1H-benzoimidazol-2-ylamino]-benzoic acid]",> 80%,–
"Cc1ccc(Oc2nc3cc(-c4ccc(CN(C)C)cc4)c(Cl)cc3[nH]2)cc1C(=O)O [Example 294, {4-[2-(3-carboxy-4-methylphenoxy)-6-chloro-1H-benzimidazol-5-yl]phenyl}-N,N-dimethylmethanaminium trifluoroacetate]",> 80%,–
"Cc1cc(Oc2nc3cc(-c4ccc(C(C)(C)O)cc4)c(Cl)cc3[nH]2)cc(C(=O)O)c1C [Example 316, 5-{6-Chloro-5-[4-(1-hydroxy-1-methyl-ethyl)-phenyl]-1H-benzoimidazol-2-yloxy}-2,3-dimethyl-benzoic acid]",> 80%,–
"Cc1ccc(Oc2nc3cc(C#Cc4ccncc4)c(Cl)cc3[nH]2)cc1C(=O)O [Example 87, 5-(6-Chloro-5-pyridin-4-ylethynyl-1H-benzoimidazol-2-yloxy)-2-methyl-benzoic acid]",> 80%,–
"Cc1ccc(Oc2nc3cc(-c4ccc5c(c4)c(C#N)cn5C)c(Cl)cc3[nH]2)cc1C(=O)O [Example 349, 2-(3-carboxy-4-methylphenoxy)-6-chloro-5-(3-cyano-1-methyl-1H-indol-5-yl)-1H-3,1-benzimidazol-3-ium trifluoroacetate]",> 80%,–

Structure (SMILES),Emax [1],further results
"Cc1ccc(Oc2nc3cc(-c4ccc(N(C)C)cc4)c(Cl)cc3[nH]2)cc1C(=O)O [Example 318, 2-(3-carboxy-4-methylphenoxy)-6-chloro-5-[4-(dimethylamino)phen-yl]-1H-benzimidazol-3-ium chloride]",> 80%,–
"O=C(O)c1cccc(Sc2nc3cc(-c4cccs4)c(Cl)cc3[nH]2)c1 [Example 65, 3-{[6-chloro-5-(2-thienyl)-1H-benzimidazol-2-yl]thio}benzoic acid]",> 80%,–
"Cc1ccc(Oc2nc3cc(-c4ccc(-c5cccc(Cl)c5)cc4)c(Cl)cc3[nH]2)cc1C(=O)O [Example 186, 5-{[6-chloro-5-(3′-chlorobiphenyl-4-yl)-1H-benzimidazol-2-yl]oxy}-2-methylbenzoic acid]",> 80%,–
"Cc1ccc(Oc2nc3cc(C#CC4CCCC4O)c(Cl)cc3[nH]2)cc1C(=O)O (stereo not drawn) [Example 130, 5-[6-Chloro-5-(2-hydroxy-cyclopentylethynyl)-1H-benzoimidazol-2-yloxy]-2-methyl-benzoic acid]",> 80%,–
"COC(=O)c1cc(Oc2nc3cc(C#Cc4ccc(OC(F)(F)F)cc4)c(Cl)cc3[nH]2)ccc1C [Example 98, 5-[6-Chloro-5-(4-trifluoromethoxy-phenylethynyl)-1H-benzoimidazol-2-yloxy]-2-methyl-benzoic acid methyl ester]",> 80%,–
"O=C(O)c1ccc(Oc2nc3cc(-c4ccc(-c5ccccc5)cc4)c(Cl)cc3[nH]2)cc1Cl [Example 39, 4-(5-Biphenyl-4-yl-6-chloro-1H-benzoimidazol-2-yloxy)-2-chloro-benzoic acid]",> 80%,–
"O=C(O)c1cc(Oc2nc3cc(-c4ccccc4O)c(Cl)cc3[nH]2)ccc1Cl [Example 59, 2-Chloro-5-[6-chloro-5-(2-hydroxy-phenyl)-1H-benzoimidazol-2-yloxy]-benzoic acid]",> 80%,–
"Cc1ccc(Oc2nc3cc(-c4ccc(C(C)C)c5c4ccn5C)c(Cl)cc3[nH]2)cc1C(=O)O [Example 272, 5-[6-Chloro-5-(7-isopropyl-1-methyl-1H-indol-4-yl)-1H-benzoimidazol-2-yloxy]-2-methyl-benzoic acid]",> 80%,–
"Cc1ccc(Oc2nc3cc(-c4ccc5c(c4)CN(C(C)C)C5)c(Cl)cc3[nH]2)cc1C(=O)O [Example 299, 5-[2-(3-carboxy-4-methylphenoxy)-6-chloro-1H-benzimidazol-5-yl]-2-isopropyl-2,3-dihydro-1H-isoindolium trifluoroacetate]",> 80%,–
"Cc1ccc(Oc2nc3cc(-c4ccc5c(c4)OC(F)(F)O5)c(Cl)cc3[nH]2)cc1C(=O)O [Example 308, 5-[6-Chloro-5-(2,2-difluoro-benzo[1,3]dioxol-5-yl)-1H-benzoimidazol-2-yloxy]-2-methyl-benzoic acid]",> 80%,–
"Cc1ccc(Oc2nc3cc(-c4cc5ccn(CCO)c5cc4F)c(Cl)cc3[nH]2)cc1C(=O)O [Example 325, 5-({6-chloro-5-[6-fluoro-1-(2-hydroxyethyl)-1H-indol-5-yl]-1H-benzimidazol-2-yl}oxy)-2-methylbenzoic acid]",–,"EC50 (recombinant human AMPK complex 1 (α1β1γ1), read-out: EC50): 5 nM"
"Cc1ccc(Oc2nc3cc(-c4ccc(-c5ccc(C#N)cc5)cc4)c(Cl)cc3[nH]2)cc1C(=O)O [Example 103, 5-[6-Chloro-5-(4′-cyano-biphenyl-4-yl)-1H-benzoimidazol-2-yloxy]-2-methyl-benzoic acid]",> 80%,–
"O=C(NS(=O)(=O)c1ccccc1)c1cccc(Oc2nc3cc(-c4ccc(-c5ccccc5)cc4)c(Cl)cc3[nH]2)c1 [Example 222, N-[3-(5-Biphenyl-4-yl-6-chloro-1H-benzoimidazol-2-yloxy)-benzoyl]-benzenesulfonamide]",> 80%,–
"Cc1ccc(Oc2nc3cc(-c4cnc5c(c4)OCCN5C)c(Cl)cc3[nH]2)cc1C(=O)O [Example 143, 2-(3-carboxy-4-methylphenoxy)-6-chloro-5-(4-methyl-3,4-dihydro-2H-pyrido[3,2-b] [1,4]oxazin-7-yl)-1H-3,1-benzimidazol-3-ium trifluoroacetate]",> 80%,–
"Cc1cc2cc(-c3cc4nc(Oc5ccc(C)c(C(=O)O)c5)[nH]c4cc3Cl)ccc2[nH]1 [Example 261, 5-{[6-chloro-5-(2-methyl-1H-indol-5-yl)-1H-benzimidazol-2-yl]oxy}-2-methylbenzoic acid]",> 80%,–
"COc1ccccc1-c1ccc(-c2cc3nc(Oc4ccc(C)c(C(=O)O)c4)[nH]c3cc2Cl)cc1 [Example 194, 5-{[6-chloro-5-(2′-methoxybiphenyl-4-yl)-1H-benzimidazol-2-yl]oxy}-2-methylbenzoic acid]",> 80%,–
"Cc1ccc(Oc2nc3cc(-c4ccc5c(c4)c(C)cn5C)c(Cl)cc3[nH]2)cc1C(=O)O [Example 288, 5-[6-Chloro-5-(1,3-dimethyl-1H-indol-5-yl)-1H-benzoimidazol-2-yloxy]-2-methyl-benzoic acid]",> 80%,–
"Cc1ccc(Oc2nc3cc(-c4ccc5c(ccn5C(C)C)c4)c(Cl)cc3[nH]2)cc1C(=O)O [Example 253, 5-[6-Chloro-5-(1-isopropyl-1H-indol-5-yl)-1H-benzoimidazol-2-yloxy]-2-methyl-benzoic acid]",–,Emax (read-out: % Maximum AMP Activation of human AMPK Complex 1): > 80%
